Experimental data reported in patent US6756410B2, “Induction of LDL receptor expression by extracellular-signal regulated kinase, ERK-1/2” (priority 2000, dated 2004).
Entries after “also recorded” stand apart in the source; their conditions may differ.

Legend:
p42/44^MAPK = assay: p42/44MAPK phosphorylation, immunoblot with phospho-specific antibody in HepG2-ΔRaf-1:ER cells; assay type: cell-based, human
Procedure: HepG2 cells were treated with indicated doses of ICI182,780 for 4 hours. Phospho-specific p42/44^MAPK antibody was used to monitor p42/44^MAPK phosphorylation/activation, and phosphorylation-independent p42/44^MAPK antibody was used to measure total p42/44^MAPK protein.
(§1) Cells were scraped in phosphate-buffered saline (PBS) and centrifuged, and the pellet was resuspended in lysis buffer (50 mM Tris-Cl [pH 7.5], 150 mM NaCl, 10 mM MgCl2, 1 mM dithiothreitol, 10 mM NaF, 0.5 mM Na3VO4, 0.5% Nonidet P-40, 10 μg of aprotinin/ml, and 100 μg of phenylmethylsulfonyl fluoride per ml). Protein concentration was measured by the Bio-Rad protein assay. Protein (30 to 50 μg) was resolved by sodium dodecyl sulfate-polyacrylamide gel electrophoresis (SDS-PAGE) and transferred onto Immobilon P membranes (Millipore). The filter was blocked in 2.5% skim milk with 0.1% Tween 20 in PBS for 2 h followed by incubation with the specific antibody. The following antibodies were used: polyclonal rabbit antibodies against phosphorylation-independent p42/44^MAPK, phospho-specific-p42/44^MAPK, and phospho-specific or phosphorylation-independent Raf-1 kinase. Reactive proteins were detected with horseradish peroxidase-conjugated secondary antibodies and visualized with an ebb enhanced chemiluminescence detection kit (Amersham Pharmacia Biotech).

LDL receptor = LDL receptor mRNA expression, Northern blot in HepG2-ΔRaf-1:ER cells; assay type: cell-based, human
Procedure: Northern blotting was done under identical conditions to measure RNA levels of LDL receptor, SS, and actin genes.
Total RNA was analyzed by Northern blot for measuring LDL receptor mRNA levels.
LDL receptor and SS mRNA levels were determined by Northern blotting. Results shown are indicative of two separate experiments.
Cells either untreated or pretreated with different concentrations of sterols (1, 2 or 5 μg/ml 25-hydroxycholesterol and 10 μg/ml cholesterol) were induced with ICI182,780 (1 μM) for 4 h. Total RNA was subjected to Northern blotting to determine mRNA levels of LDL receptor and squalene synthase.
Total RNA was isolated by the TRIzol reagent (GIBCO-BRL), according to the manufacturer's protocol. RNA was stored under ethanol. Aliquots containing 20 μg RNA were electrophoresed through a 1%-agarose-formaldehyde gel and transferred to a nylon membrane (BioRad) followed by hybridization. Hybridization probes for LDL receptor, actin, and SS, labeled with ^32P, were prepared using the M13 universal primer. Hybridizations were performed at 45° C., and after final washing at 55° C. for 30 min, filters were exposed to Kodak x-ray film. The relative intensities of specific bands were determined densitometrically within the linear range of film on a model 300A laser densitometer (Molecular Dyanamics) using Image Quant software.

[1] = tested on: human LDL receptor promoter; assay: LDL receptor promoter-luciferase reporter (construct A) in HepG2-ΔRaf-1:ER cells; assay type: cell-based; details: for transcriptional (activating) effect of ICI182,780 on the human LDL receptor promoter in presence of inhibitor: 1 μM ICI182,780, PD98059 50 μM, staurosporine 1 μM, curcumin 20 μM
Procedure: HepG2-ΔRaf-1:ER cells were cotransfected with LDL receptor promoter-luciferase reporter (plasmid A) and β-galactosidase-reporter. After 24 hours, cells were grown in a medium containing 0.2% serum for 12 h, followed by addition of 1 μM ICI182,780 for the last 24 h in the absence or presence of indicated inhibitor. […] Sterols (2 μg/ml 25-hydroxycholesterol and 10 μg/ml cholesterol) were added to examine sensitivity to sterols. After the treatment both luciferase and β-galactosidase activities were measured according to the method previously described (24). The results are presented as means ±S.E. and represent at least three individual experiments.
A human low density lipoprotein receptor promoter-luciferase construct A (24) was used to determine the response of the low density lipoprotein receptor promoter to activation of the p42/44^MAPK pathway. HepG2-ΔRaf-1:ER cells were transfected with 0.6 μg of reporter plasmid and 0.25 μg of SV-βGal plasmid by lipofectamine technique, as described previously (Mehta et al., 1996). Cells were washed after 12 h, and after another 12 h the cells were treated with 1 μM ICI182,780 for 36 h, and the controls were treated with ethanol. PBS-washed cells were harvested in 250 mM Tris-Cl, pH 7.5, and lysed in the lysis buffer. The luciferase activities of the cell lysates were measured according to the manufacture's recommendations (Promega). Luciferase assays were carried out in triplicate. In FIG. 6, the data are shown as means of three experiments and the fold induction represents the difference between the means of the samples with ICI182,780 and that of the control. Luciferase activity was normalized for β-galactosidase activity.
To study the role of serine/threonine protein kinases in the activation of the LDL receptor promoter by p42/44^MAPK, HepG2 cells were transiently transfected with construct A. Sixteen hours after transfection, the cells were treated for 1 h with the indicated inhibitor, and then with ICI182,780 in the continued presence of inhibitor.
Because the primary effect of p42/44^MAPK activation is exerted at the transcriptional levels, it was next determined whether ICI182,780 treatment modulated activity of the low density lipoprotein receptor promoter. A low density lipoprotein receptor promoter/luciferase reporter construct A (Mehta et al., 1996), containing promoter sequences from −273 to +35, was transfected into HepG2-ΔRaf-1:ER cells. Both sets of transfected cells were exposed to ICI182,780 for 36 h, after which luciferase activity was determined.

HepG2-ΔRaf-1:ER cells [2] = assay: Growth curves of HepG2-ΔRaf-1:ER cells (cell counting); assay type: cell-based, human; details: 1 μM ICI182,780
Procedure: (§2) Log-phase cells were seeded at 10^5 cells per 60 mm dish. After 36 h the medium was changed to medium containing either 1 μM ICI182,780 or no ICI182,780. At the indicated times, cells were trypsinized and counted.

HepG2 cells = assay: Growth curves of HepG2 cells (cell counting); assay type: cell-based, human; details: 1 μM ICI182,780
Procedure: as §2

HepG2-ΔRaf-1:ER cells [3] = assay: DNA synthesis, [3H]thymidine incorporation; assay type: cell-based, human; details: ICI182,780 0 to 1 μM for 18 h or 1 μM over time
Procedure: Cells in a 24-well dishes were either treated with different ICI182,780 concentrations from 0 to 1 μM for 18 h (top panel) or with 1 μM of ICI182,780 for time periods as indicated in the abscissa of the graph (bottom panel). DNA synthesis was measured by the incorporation of [^3H]thymidine during the final 4 h. Each point represents the mean of three determinations and is representative of at least two independent experiments.
Proliferation was measured with the [^3H]thymidine uptake assay (Amersham), with [^3H]thymidine (1.0 μCi/ml) present in the medium for 4 h prior to harvesting.

HepG2-ΔRaf-1:ER cells [4] = assay: Cell cycle analysis by propidium iodide FACS; assay type: cell-based, human; details: 1 μM ICI182,780, 18 h and 36 h
Procedure: The percentage of cells in the G1, S and G2 phases of the cell cycle is given for the control and ICI182,780 treated cells.
Cells (5×10^5) were seeded on 100 mm dishes and 2 days later the medium was replaced with medium containing 1 μM ICI182,780. After 18 h and 36 h, attached cells were trypsinized, centrifuged, washed in phosphate-buffered saline, resuspended in 1 ml phosphate-buffered saline, fixed in 1 ml of cold ethanol for overnight at 4° C., centrifuged again, washed once with saline, and resuspended in 0.1% bovine serum albumin containing 50 μg/ml ribonuclease and 50 μg/ml propidium iodide (Sigma), and then analysed in a fluoroscence-activated cell sorter (FACSORT, Becton Dickinson). Data were analysed using the Cellfit program.

HepG2-ΔRaf-1:ER cells [5] = assay: Colony staining (colony formation); assay type: cell-based, human; details: maintained with ICI182,780; results not shown
Procedure: Cells were seeded at a density of 10,000 cells per 60 mm dish and maintained with or without ICI182,780 for varying periods. Colonies were stained by addition of 0.5 ml methylene blue solution for 30 min followed by washing.

HepG2-ΔRaf-1:ER cells [6] = assay: Light microscopic examination of cell morphology; assay type: cell-based; details: 1 μM ICI182,780, 24 h
Procedure: Cells treated with 1 μM of the ICI182,780 for 24 h were examined by optical microscopy. […] Representative photomicrographs of HepG2-ΔRaf-1:ER cells either untreated or treated with ICI182,780 were taken at low and high cell density regions of the cultured plate by using microscope.
The phenotype seen in ICI182,780-treated cells may resemble the situation of terminal differentiation, in which cells (for example, neurons) show differentiation in the absence of DNA replication.

cyclin A = assay: Cyclin A protein expression, immunoblot; assay type: cell-based, human; details: 1 μM ICI182,780
Procedure: (§3) Cells were cultured in the absence or presence of 1 μM ICI182,780. Equal amounts of total protein (40 μg) were resolved by SDS-PAGE, transferred to Immobilon P membrane and probed with antibodies specific for cyclin A and p21^Cip.
as §1

p21^Cip1 = assay: p21Cip protein expression, immunoblot; assay type: cell-based, human
Procedure: as §3, §1

Raf-1 kinase = Raf-1 kinase phosphorylation, immunoblot in HepG2-ΔRaf-1:ER cells; assay type: cell-based, human; details: 30 min pretreatment, then 1 μM ICI182,780
Procedure: Total cell extracts were subjected to immunoblotting using the phosphorylation-independent and phospho-specific Raf-1 kinase antibodies. The same blot was later probed with the phospho-specific p42/44^MAPK antibody.
as §1

[7] = clone B, ICI182,780 0 to 1 μM, 4 hours
[8] = 30 min pretreatment, then 1 μM ICI182,780

C[C@]12CC[C@@H]3c4ccc(O)cc4C[C@@H](CCCCCCCCC[S+]([O-])CCCC(F)(F)C(F)(F)F)[C@H]3[C@@H]1CC[C@@H]2O (some centres unmarked) [ICI182,780]
time at which p42/44MAPK phosphorylation was clearly detected (p42/44^MAPK; 1 μM ICI182,780, 1 to 16 h): 1 h | time of maximal p42/44MAPK phosphorylation response (p42/44^MAPK; 1 μM ICI182,780, 1 to 16 h): 2 h | increase in p42/44MAPK phosphorylation (p42/44^MAPK; [7]): dependent on ICI182,780 concentration | time of maximal induction of LDL receptor expression (LDL receptor; 1 μM ICI182,780, 1 to 16 h): 3 to 4 h | increase in LDL receptor expression (LDL receptor; [7]): dependent on ICI182,780 concentration | lowest concentration at which promoter activation was detected ([1]; construct A): 0.5 µM | increase of luciferase expression driven by the LDL receptor promoter ([1]; construct A (-273 to +35), 1 μM ICI182,780 for 36 h, normalized for β-galactosidase): 4 to 6 fold | luciferase activity, promoterless luciferase vector ([1]; transfected cells containing the promoterless luciferase vector, ICI182,780 treatment): virtually no change in luciferase activity | cell growth of HepG2-ΔRaf-1:ER cells (HepG2-ΔRaf-1:ER cells [2]): arrested the growth | cell growth of HepG2 cells (HepG2 cells): no growth arrest | DNA synthesis ([3H]thymidine incorporation) (HepG2-ΔRaf-1:ER cells [3]): inhibition of DNA synthesis | cell cycle distribution (HepG2-ΔRaf-1:ER cells [4]): modest increase in the fraction of cells found in the G2/M phase with a concomitant decrease in S phase | ability to form colonies (HepG2-ΔRaf-1:ER cells [5]): reduced their ability to form colonies | morphological appearance of treated cells (HepG2-ΔRaf-1:ER cells [6]): larger with neuronal like structures (i.e. filopodia), and less refractile than untreated cells | signs of cell stress or death (HepG2-ΔRaf-1:ER cells [6]): no indication that ICI-treated cells were under stress or dying; also recorded: did not exhibit membrane blebbing and/or increase in the number of rounded and/or detached cells | cyclin A protein expression (cyclin A): strong down-regulation | duration of sustained high p21Cip1 levels (p21^Cip1; 1 μM ICI182,780): at least 24 h | p21Cip1 expression (p21^Cip1; 1 μM ICI182,780, between 30 and 120 min of treatment): strong increase

COc1cccc(-c2cc(=O)c3ccccc3o2)c1N [PD98059, 2-(2′-amino-3′-methoxyphenyl)-oxanaphthalene-4-one]
p42/44MAPK phosphorylation and activation after PD98059 (p42/44^MAPK; 20 μM PD98059 for 30 min before ΔRaf-1:ER activation, data not shown): inhibited phosphorylation and activation | p42/44MAPK induced LDL receptor expression after PD98059 (LDL receptor; PD98059 pretreatment 30 min, then 1 μM ICI182,780): significantly inhibited | transcriptional (activating) effect of ICI182,780 on the human LDL receptor promoter in presence of inhibitor [1]: suppressed

COc1cc(C=CC(=O)CC(=O)C=Cc2ccc(O)c(OC)c2)ccc1O [curcumin, 1,7-bis [4-hydroxy-3-methoxyphenyl]-1,6-heptadiene-3,5-dione]
ICI182,780-dependent p42/44MAPK activation in presence of curcumin (p42/44^MAPK; curcumin before 1 μM ICI182,780): without affecting | increase in LDL receptor expression caused by ICI182,780 in presence of curcumin (LDL receptor; 60 μM curcumin, endogenous gene): totally suppressed | time of treatment at which the blocking effect was complete (LDL receptor; curcumin, kinetic studies): 4 to 6 h | transcriptional (activating) effect of ICI182,780 on the human LDL receptor promoter in presence of inhibitor [1]: completely suppressed

CN[C@@H]1C[C@H]2O[C@@](C)([C@@H]1OC)n1c3ccccc3c3c4c(c5c6ccccc6n2c5c31)C(=O)NC4 [staurosporine]
ICI182,780-induced p42/44MAPK phosphorylation after staurosporine pretreatment (p42/44^MAPK; [8]): inhibition of phosphorylation | ICI182,780-induced LDL receptor expression after staurosporine pretreatment (LDL receptor; [8]): loss of LDL receptor induction | transcriptional (activating) effect of ICI182,780 on the human LDL receptor promoter in presence of inhibitor [1]: suppressed | Raf-1 kinase phosphorylation after staurosporine pretreatment (Raf-1 kinase): inhibition of phosphorylation
